Laboratory results: article PMC6776562, “Inhibition of Rac1-dependent forgetting alleviates memory deficits in animal models of Alzheimer’s disease” (Protein & Cell, 2019)

Assay: In vitro metabolic stability in human liver microsomes
Type: in vitro ADME
Description: Measurements of metabolic stability can be performed with liver microsomes, which are known to contain the major drug-metabolizing enzymes and UDP-glucuronosyltransferase (Baranczewski et al., [2006]). The in vitro metabolic stability levels of CS7171 and JKF-034 were measured using human, monkey, and mouse liver microsomes. The metabolic half-time (T1/2) and intrinsic clearance (Clint) were assayed using LC-MS analysis. Ketanserin is a potent, orally effective antagonist of endogenous serotonin. Its pharmacological profile is well studied (Brogden and Sorkin, [1990]). In this study, we used ketanserin as a control. If the T1/2 of the tested compound was 30–120 min, the compound was considered to show moderate metabolism in liver microsomes. If the T1/2 value was less than 30 min, the compound was considered to be susceptible to metabolism in liver microsomes.

Compound | Clint | T1/2
O=C1NN(c2ccc(Cl)c(Cl)c2)C(=O)C1=Cc1ccc(O)c(N(O)O)c1 [CS7171] | 407.54 mL/min/kg | 4.27 min
O=S(=O)(c1ccccc1)N1CCN(Cc2ccccc2)CC1 [JKF-034] | 95.92 mL/min/kg | 18.12 min
